Experimental findings from patent US20060247260A1, “Bis (hetero) aryl carboxamide derivatives for use as PG12 antagonists” (BAYER HEALTHCARE AG, priority 2003, published 2006) are described below.

Each structure is given as a SMILES string.

For data set [1], the target named is T1, PGI2 receptor (Homo sapiens, UniProt P43119).
T1 construct: host or cells: HEL 92.1.7 human erythroleukemia cells (whole cells)
Nature of the data set: PGI2 receptor binding/cAMP in HEL cells (in vitro activity grade). To be noted: compounds of purity about 40 to 90%. How it is done:
[Measurement of the [^3H]-Iloprost Binding to HEL Cells] (Assay 1) A human erythloleukemia cell line, HEL 92.1.7, was purchased from American Type Culture Correction and maintained in RPMI-1640 medium (Gibco BRL) supplemented with 10% fetal calf serum (FCS), 2 mM glutamine, 4.5 g/L glucose, 10 mM Hepes, 1 mM sodium pyruvate, 100 U/ml penicillin, and 100 μg/ml streptomycin in a humidified 5% CO2 atmosphere at 37° C. Cells were collected with centrifugation and washed with binding assay buffer (BAB: 50 mM Tris-HCl, 5 mM MgCl2 (pH 7.5)). Cells were suspended at the density of 6.25×10^6 cells/ml in BAB, and one million cells in 160 μl aliquot of cell suspension were put in a well of 96 well plate (Falcon). Then, 20 μl of compound solution, 100 μM of iloprost (for non-specific binding), or buffer alone (total binding), diluted with 1% DMSO in BAB was added. Finally, another 20 μl containing [^3H]-iloprost (0.02 μCi, 0.5-1 pmol) in BAB was added and incubated at room temperature for 30 min with a gentle shaking. Cell suspension was then transferred to a well of MultiScreen plate with GF/C glass filters (Millipore) to harvest cells. Cells were washed twice with 200 μl of ice-cold BAB and the plate was kept at 55° C. for 30 min to dry filters. The filter in the well was punched out to a counting tube and 2 ml of Ultima Gold XR Packard) was added. [^3H]-radio activity in the filter was measured by a liquid scintillation counter (Beckman, USA). [Iloprost-Induced cAMP Production Assay in HEL Cells] (Assay 2) HEL cells were collected with centrifugation and washed with cAMP assay buffer (CAB: Hank's balanced salt solution, 17 mM Hepes, 0.1% bovine serum albumin, 1 mM IBMX, 0.4% DMSO, and 1 mM L-ascorbic acid sodium salt (pH 7.4)). Cells were suspended at the density of 2.5×10^5 cells/ml in CAB, and twenty thousand cells in 80 μl aliquot of cell suspension were put in a well of 96 well plate (Falcon). Then, 10 μl of compound solution diluted with 1% DMSO in CAB or buffer alone was added. The plate was incubated at 37° C. for 30 min. Then, another 10 μl containing 100 nM iloprost in CAB or buffer alone was added and further incubated at 37° C. for 30 min. cAMP content in the well was measured by, a cAMP ELISA kit (Applied Biosystems, USA). The data corresponds to the compounds as yielded by solid phase synthesis and thus to levels of purity of about 40 to 90%. For practical reasons, the compounds are grouped in three classes of activity as follows: In vitro activity grade=A≦0.1 μM<B≦1 μM<C

T1 sequence (P43119 whole entry): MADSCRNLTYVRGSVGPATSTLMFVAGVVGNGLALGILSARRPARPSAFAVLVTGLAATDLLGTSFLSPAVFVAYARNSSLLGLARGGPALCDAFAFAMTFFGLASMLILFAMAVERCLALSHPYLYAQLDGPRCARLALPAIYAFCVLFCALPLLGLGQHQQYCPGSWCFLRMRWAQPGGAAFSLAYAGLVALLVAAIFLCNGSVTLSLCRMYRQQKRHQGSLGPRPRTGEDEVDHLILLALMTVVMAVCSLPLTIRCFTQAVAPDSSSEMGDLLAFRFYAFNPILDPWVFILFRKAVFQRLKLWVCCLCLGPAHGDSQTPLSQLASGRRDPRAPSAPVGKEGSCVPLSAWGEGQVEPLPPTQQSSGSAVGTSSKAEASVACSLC

Usually melting point stands for the temperature, or range, at which the solid turns liquid. As to `O=C(NC(Cc1ccccc1)C(=O)O)c1ccc(-c2ccc(OCc3ccccc3)cc2)s1` (stereo not drawn) [Example 2-1, 2-{[5-(4-Benzyloxyphenyl)thiophene-2-carbonyl]amino}-3-phenyl-propionic acid], the melting point was in the range of 215 to 216 °C. Moreover, in data set [1], the “In vitro activity grade” value was “A (A≦0.1 μM)”.

Turning to `O=C(NC(Cc1ccccc1)C(=O)[O-])c1ccc(-c2ccc(OCc3ccccc3)nc2)cc1.[Na+]` (stereo not drawn) [Example 6-1, Sodium 2-[4-(6-benzyloxypyridin-3-yl)benzoylamino]-3-phenylpropionate], the melting point was 240 to 242 °C. For the same compound, in data set [1], the “In vitro activity grade” value was “A (A≦0.1 μM)”.

In the case of `O=C(NC(Cc1ccccc1)C(=O)O)c1ccc(-c2ccc(OCc3ccccc3)c(F)c2)cc1` (stereo not drawn) [Example 7-1, 2-[(4′-Benzyloxy-3′-fluorobiphenyl-4-carbonyl)amino]-3-phenylpropionic acid], the melting point turned out to be 215 °C. In data set [1], the “In vitro activity grade” value is recorded as “A (A≦0.1 μM)”.
